One data set is described as follows: Water solubility. Conditions: in words. The data set is classed as physicochemical.
A further data set in a line: Chemical stability. Conditions: in words. It is filed as physicochemical.
Another data set concerns mouse. The data set is described as follows: LD50 mouse i.v. It is filed as in vivo.
Another data set is described as follows: Renal excretion. Conditions: in words. It is filed as in vivo.
Data set [1] is described as follows: Viscosity of contrast medium solutions. It is filed as physicochemical. The note with it: for Viscosity: 37° C.
Data set [2] in a line: Osmolality of contrast medium solutions. The data set is classed as physicochemical.

The record followed here is patent publication US5232685A, “Nonionic x-ray contrast medium with high iodine content” (Schering Aktiengesellschaft, priority 1989, dated 1993).

As for `CN(CC(O)CO)C(=O)c1c(I)c(NC(=O)CO)c(I)c(C(=O)NCCO)c1I` (stereo not shown) [Example 1, 5-Hydroxyacetamido-2,4,6-triido-isophthalic acid-(2,3-dihydroxy-N-methyl-propyl)-(2-hydroxy-ethyl)-diamide], the Water solubility entry in the data set “Water solubility” is given as “very water-soluble”. The Chemical stability result in “Chemical stability” is “good chemical stability”. For the same compound, in the data set with mouse, the LD50 was 18 g I/kg. The Renal excretion entry in “Renal excretion” is listed as “very quick, selective renal excretion”. The compound also had a Viscosity in data set [1] (370 mg I/ml) of 6.6 cP. In addition, the “Improvement of viscosity value” in data set [1] (in comparison with iopromide) came to 30.5%. Further, the Osmolality in data set [2] (370 mg I/ml (37° C.)) amounted to 590 mosm/kg H2 O. Further, the “Improvement of osmolality value” in data set [2] (in comparison with iopromide) is 23.4%.
With `CC(=O)N(CC(O)CO)c1c(I)c(C(=O)NCC(O)CO)c(I)c(C(=O)NCC(O)CO)c1I` (stereo not shown) [Iohexol], in the data set with mouse, the LD50 stood at 15 g I/kg. This compound displayed a Viscosity in data set [1] (350 mg I/ml (*)) of 10.5 cP. This compound also had an Osmolality in data set [2] (350 mg I/ml (*) (37° C.)) of 820 mosm/kg H2 O.
Compound `CN(C(=O)CO)c1c(I)c(C(=O)NCC(O)CO)c(I)c(C(=O)NCC(O)CO)c1I` (stereo not shown) [Iomeprol] displayed an LD50 in the data set with mouse of 14 g I/kg. The Viscosity in data set [1] (370 mg I/ml) was determined as 8.6 cP. The same compound had an Osmolality in data set [2] (370 mg I/ml (37° C.)) of 680 mosm/kg H2 O. Moreover, in data set [2] (Iopamidol/Iomeprol (Iomeprol versus Iopamidol)), the “Greatest improvement of osmolality within the previously known five contrast media” value is reported as 18.1%.
Regarding `C[C@H](O)C(=O)Nc1c(I)c(C(=O)NC(CO)CO)c(I)c(C(=O)NC(CO)CO)c1I` [Iopamidol], the LD50 in the data set with mouse worked out at 15 g I/kg. In data set [1] (370 mg I/ml), this compound came in with a Viscosity of 9.4 cP. This compound also displayed an Osmolality in data set [2] (370 mg I/ml (37° C.)) of 830 mosm/kg H2 O.
The like results for `COCC(=O)Nc1c(I)c(C(=O)NCC(O)CO)c(I)c(C(=O)N(C)CC(O)CO)c1I` (stereo not shown) [Iopromide] were, in that order, 15 g I/kg, 9.5 cP and 770 mosm/kg H2 O.
Compound `CC(=O)N(CC(O)CO)c1c(I)c(C(=O)NCCO)c(I)c(C(=O)NCC(O)CO)c1I` (stereo not shown) [Ioxilan] displayed an LD50 in the data set on mouse of 15 g I/kg. In data set [1] (350 mg I/ml (*)), this compound yielded a Viscosity of 8.1 cP. In addition, in data set [1] (Iohexol/Ioxilan (Ioxilan versus Iohexol)), the “Greatest improvement of viscosity within the previously known five contrast media” value is reported as 22.9%. The compound further yielded an Osmolality in data set [2] (350 mg I/ml (*) (37° C.)) of 700 mosm/kg H2 O.
